Where “and” joins values, the source holds several entries; their conditions need not be identical. Identical values can stand only once. Entries after “also recorded” stand apart in the source; their conditions may differ.
System: Scn1a+/- heterozygous knockout mice ([129xB]F1.Scn1a+/-), heat-induced seizures
Assay: Hyperthermia-induced seizure study in Scn1a+/- heterozygous knockout mice
Format: in vivo, mouse
Set-up: Temp Change: unit not given here
Conditions: for amount of seizures relative to administration of vehicle: Table 10 summary; for performance compared with the clobazam positive control: clobazam 10 mg/kg; for efficacy at preventing heat-induced seizures: summary of the seizure study, FIG. 13
Text: Reason for selection of species: The Scn1a^+/− knockout mouse ([129xB]F1. Scn1a^+/−) is a model subject of DS with a high translational value.
Between P14 and 16, Scn1a^+/− heterozygous knockout mice are randomly assigned to treatment groups (n=7 males, 7 females/treatment group). The Scn1a^+/− knockout mouse model was chosen because it is an art accepted animal model for epileptic conditions, including for Dravet Syndrome. Treatments are GABAA receptor modulator 1 (“Compound 1” as a phosphate salt at 0.1, 0.3, 1.0 mg/kg), GABAA receptor modulator 2 (“Compound 2” at 3, 10, 30, 100 mg/kg), vehicle, or Clobazam (“CBZ”) (10 mg/kg; positive control).
The GABAA receptor modulators were administered intraperitoneally (i.p.) using a 0.5 or 1-ml plastic syringe fitted with a 27 or 30 gauge 0.5″-long beveled needle.
Animals received 10 mL of formulation per kg of body weight as measured on the day of experiment.
In order to verify the dose concentration, mice were dosed with a test article or control and placed into individual housing cages. A temperature probe was gently inserted into the mouse's rectum and secured by taping the probe's wire to the mouse's tail with the tag end on the mouse's dorsal side. For each group, the insertion of the probe was as follows: • a. For mice administered CBZ, five (5) mins passed before insertion of the probe in order to allow 20-30 min pretreatment time when the state of hyperthermia reached. • b. For mice administered Compound 1, thirty-five (35) mins passed before insertion of the probe in order to allow 50-60 min pretreatment time when the state of hyperthermia is reached. • c. For mice administered […], five (5) mins passed before insertion of the probe in order to allow 20-30 min pretreatment time when the state of hyperthermia reached.
Each mouse was allowed to acclimate to the temperature probe for five (5) minutes before recording the baseline temperature. FIGS. 1-3 depict the starting temperatures of the female mice, the male mice, and the average starting temperatures of all mice prior to inducing the heat-induced seizures.
FIGS. 4-6 depict the final core body temperature of the female mice, the male mice, and the average final core body temperature of all mice after heating. FIGS. 7-9 illustrate the total temperature change for the female mice, the male mice, and average of all mice; while FIGS. 10-12 depict the average temperature change per minute for the female mice, the male mice, and average of all mice. The mouse's body temperature was maintained at 42.5° C. for 3 mins. If no seizure occurred, the mouse was considered seizure-free.

[1] = Clobazam 10 mg/kg i.p., 30 minute pretreatment, individual animals, female mice
[2] = Clobazam 10 mg/kg i.p., 30 minute pretreatment, individual animals, male mice
[3] = 0.1 mg/kg i.p., 60 minute pretreatment, individual animals, female mice
[4] = 0.1 mg/kg i.p., 60 minute pretreatment, individual animals, male mice
[5] = 0.3 mg/kg i.p., 60 minute pretreatment, individual animals, female mice
[6] = 0.3 mg/kg i.p., 60 minute pretreatment, individual animals, male mice
[7] = 3 mg/kg i.p., 30 minute pretreatment, individual animals, female mice
[8] = 3 mg/kg i.p., 30 minute pretreatment, individual animals, male mice
[9] = Compound 2 30 mg/kg, 30 minute pretreatment, individual animals, female mice
[10] = Compound 2 30 mg/kg, 30 minute pretreatment, individual animals, male mice
[11] = Compound 2 100 mg/kg, 30 minute pretreatment, individual animals, female mice
[12] = Compound 2 100 mg/kg, 30 minute pretreatment, individual animals, male mice

Compound: CN1C(=O)CC(=O)N(c2ccccc2)c2cc(Cl)ccc21 [Clobazam, reference compound]
- Total With No Seizure (Clobazam 10 mg/kg i.p., 30 minute pretreatment): 38%
- End Temp [1]: 42.3 °C and 42 °C and 42.2 °C and 42.7 °C (2×) and 42.6 °C (4×) and 42.5 °C (2×) and 42.9 °C
- Observations [1]: Tonic-clonic, squeek; also recorded: seizure free, 3 min hold; also recorded: Tonic-clonic on the onset; also recorded: Tonic-clonic, HLE
- End Temp [2]: 41.9 °C and 42.6 °C (2×) and 42.5 °C (3×) and 42.9 °C and 42.8 °C and 41.8 °C and 42 °C and 41.7 °C and 42.1 °C
- Observations [2]: seizure free, 3 min hold; also recorded: Tonic-clonic seizure; also recorded: Tonic-clonic seizure,; also recorded: Tonic-clonic, squeek; also recorded: Tonic-clonic on the onset
- End Temperature (summary, 10 mg/kg (n = 24)): 42.42 °C
- Seizure free % (summary, 10 mg/kg (n = 24)): 38%
- Temp Change (summary, 10 mg/kg (n = 24)): 7.60
- Temp Change/min (summary, 10 mg/kg (n = 24)): 0.53

Compound: CC(C)(O)c1cnn2c(-c3ccc(F)c(-c4c(F)cccc4C#N)c3)cnc2n1 [Compound 1]
- Total With No Seizure (0.1 mg/kg i.p., 60 minute pretreatment): 6%
- End Temp [3]: 41.9 °C and 41.8 °C and 41.6 °C and 42 °C and 41.7 °C and 42.8 °C and 41.4 °C and 41.2 °C
- Observations [3]: Tonic-clonic, squeek; also recorded: Seizure free, 3 min hold
- End Temp [4]: 42.6 °C and 41.8 °C and 40.8 °C and 42 °C and 42.1 °C and 41.5 °C and 42.2 °C and 41.6 °C
- Observations [4]: Tonic-clonic, seizure; also recorded: Tonic-clonic, squeek
- Total With No Seizure (0.3 mg/kg i.p., 60 minute pretreatment): 33%
- End Temp [5]: 41.7 °C and 41.4 °C and 42.3 °C (2×) and 42.5 °C and 42.8 °C and 42.1 °C and 42.2 °C and 42.7 °C
- Observations [5]: Tobic-clonic, squeek, HLE; also recorded: Seizure free, 3 min hold; also recorded: tonic-clonic, squeek, HLE
- End Temp [6]: 41.4 °C and 42.4 °C (2×) and 42.8 °C and 41.9 °C and 42.2 °C and 42.6 °C (2×) and 43 °C
- Observations [6]: Tonic,-clonic, squeek; also recorded: Tonic-clonic, squeek; also recorded: Seizure free, 3 min hold
- Total With No Seizure (1.0 mg/kg i.p., 60 minute pretreatment): 36%
- Observations (1.0 mg/kg i.p., 60 minute pretreatment, individual animals): Tonic-clonic seizure,; also recorded: seizure free, 3 min hold; also recorded: Tonic-clonic seizure; also recorded: Tonic-clonic, Squeek
- End Temp (1.0 mg/kg i.p., 60 minute pretreatment, individual animals, female mice): 42.2 °C (2×) and 42.8 °C (2×) and 42.4 °C and 42.5 °C (3×) and 42.3 °C and 42.9 °C and 42.1 °C
- End Temp (1.0 mg/kg i.p., 60 minute pretreatment, individual animals, male mice): 41.9 °C and 42.5 °C (2×) and 42.9 °C and 42.3 °C and 42.2 °C and 42.8 °C (2×) and 41.5 °C and 41.3 °C and 42.6 °C
- amount of seizures relative to administration of vehicle: reduced the amount of seizures
- performance compared with the clobazam positive control: performed at least as well as the clobazam positive control
- efficacy at preventing heat-induced seizures: effective at preventing heat-induced seizures
- End Temperature (summary, 0.1 mg/kg (n = 16)): 41.81 °C
- Seizure free % (summary, 0.1 mg/kg (n = 16)): 6%
- Temp Change (summary, 0.1 mg/kg (n = 16)): 6.66
- Temp Change/min (summary, 0.1 mg/kg (n = 16)): 0.52
- End Temperature (summary, 0.3 mg/kg (n = 18)): 42.29 °C
- Seizure free % (summary, 0.3 mg/kg (n = 18)): 33%
- Temp Change (summary, 0.3 mg/kg (n = 18)): 7.15
- Temp Change/min (summary, 0.3 mg/kg (n = 18)): 0.48
- End Temperature (summary, 1.0 mg/kg (n = 22)): 42.39 °C
- Seizure free % (summary, 1.0 mg/kg (n = 22)): 36%
- Temp Change (summary, 1.0 mg/kg (n = 22)): 7.05
- Temp Change/min (summary, 1.0 mg/kg (n = 22)): 0.46

Compound: C#Cc1ccc2c(c1)C(c1ccccn1)=NCc1c(-c3nc(CC)no3)ncn1-2 [Compound 2]
- Total With No Seizure (3 mg/kg i.p., 30 minute pretreatment): 7%
- End Temp [7]: 42.6 °C and 41.8 °C and 41.7 °C (2×) and 42.2 °C and 42.4 °C and 41.4 °C
- Observations [7]: Seizure free, 3 min hold; also recorded: Tonic-clonic, squeek
- End Temp [8]: 41.3 °C (2×) and 41.7 °C and 42.1 °C and 41.8 °C and 42 °C and 42.5 °C
- Observations [8]: Tonic-clonic, squeek; also recorded: Tonic-clonic on the onset
- prevention of seizures (100 mg/kg dose, n=8): completely preventing seizures in each animal
- dose dependence of seizure prevention (3, 10, 30, 100 mg/kg): prevented seizures in a dose-dependent fashion
- Total With No Seizure (Compound 2 10 mg/kg i.p., 30 minute pretreatment): 50%
- Observations (Compound 2 10 mg/kg i.p., 30 minute pretreatment, individual animals): Tonic-clonic, squeek
- End Temp (Compound 2 10 mg/kg i.p., 30 minute pretreatment, individual animals, female mice): 42.7 °C (2×) and 42.8 °C (2×) and 42.6 °C and 42.1 °C and 42.5 °C
- End Temp (Compound 2 10 mg/kg i.p., 30 minute pretreatment, individual animals, male mice): 42.5 °C (3×) and 42.8 °C and 42 °C and 40 °C and 42.7 °C
- Total With No Seizure (Compound 2 30 mg/kg, 30 minute pretreatment): 73%
- End Temp [9]: 42.5 °C and 41.5 °C and 42.8 °C (2×) and 42.7 °C (3×) and 42.6 °C
- Observations [9]: seizure free, 3 min hold; also recorded: Tonic-clonic seizure
- Temp Change [9]: 9.1 and 5.3 and 6.3 and 6.2 and 7.9 and 7.2 and 6.6 and 7.4
- Temp Change/min [9]: 0.51 and 0.48 (2×) and 0.41 and 0.46 and 0.55 and 0.39 and 0.35
- End Temp [10]: 42.5 °C and 42.8 °C and 42.6 °C and 43 °C and 42.7 °C (2×) and 41.6 °C
- Observations [10]: Tonic-clonic, squeek; also recorded: Seizure free, 3 min hold
- Temp Change [10]: 7.3 and 6.8 and 7.8 and 7.5 (2×) and 9.6 and 7
- Temp Change/min [10]: 0.66 and 0.49 and 0.41 and 0.54 and 0.53 and 0.50 and 0.63
- Total With No Seizure (Compound 2 100 mg/kg, 30 minute pretreatment): 100%
- End Temp [11]: 42.9 °C and 42.7 °C (2×) and 42.5 °C
- Observations [11]: Seizure free, 3 min hold
- Temp Change [11]: 8.2 and 7.4 and 7.7 and 8.5
- Temp Change/min [11]: 0.59 and 0.53 and 0.33 and 0.50
- End Temp [12]: 42.6 °C (2×) and 42.7 °C and 42.5 °C
- Observations [12]: Seizure free, 3 min hold
- Temp Change [12]: 7.4 and 7.2 and 9.7 and 7.7
- Temp Change/min [12]: 0.31 and 0.36 and 0.54 and 0.29
- amount of seizures relative to administration of vehicle: reduced the amount of seizures
- performance compared with the clobazam positive control: performed at least as well as the clobazam positive control
- efficacy at preventing heat-induced seizures: effective at preventing heat-induced seizures
- End Temperature (summary, 3 mg/kg (n = 14)): 41.89 °C
- Seizure free % (summary, 3 mg/kg (n = 14)): 7%
- Temp Change (summary, 3 mg/kg (n = 14)): 6.61
- Temp Change/min (summary, 3 mg/kg (n = 14)): 0.45
- End Temperature (summary, 10 mg/kg (n = 14)): 42.37 °C
- Seizure free % (summary, 10 mg/kg (n = 14)): 50%
- Temp Change (summary, 10 mg/kg (n = 14)): 7.09
- Temp Change/min (summary, 10 mg/kg (n = 14)): 0.47
- End Temperature (summary, 30 mg/kg (n = 15)): 42.55 °C
- Seizure free % (summary, 30 mg/kg (n = 15)): 73%
- Temp Change (summary, 30 mg/kg (n = 15)): 7.30
- Temp Change/min (summary, 30 mg/kg (n = 15)): 0.49
- End Temperature (summary, 100 mg/kg (n = 8)): 42.60 °C
- Seizure free % (summary, 100 mg/kg (n = 8)): 100%
- Temp Change (summary, 100 mg/kg (n = 8)): 8.00
- Temp Change/min (summary, 100 mg/kg (n = 8)): 0.37
